According to patent US5344843A, “Cat-1 inhibitors, pharmaceutical compositions and methods of use” (Hoffman-La Roche Inc., priority 1992, dated 1994):
Counter-ions that a name gives are not always drawn.

Assays:
[1] = target: T1, CAT-1 (carnitine acyltransferase 1) (Rattus norvegicus, UniProt Q63704); experiment: Secondary Screen--Inhibition of CAT-1 in intact cardiac myocytes (hypoxia-induced increase in long-chain acylcarnitines); type: cell-based; design: inhibition: dose or concentration left out as unconfirmed; conditions: isolated rat cardiac myocytes; for IC50: 50% inhibition of hypoxia-induced increase in long-chain acylcarnitines; for inhibition: hypoxia
T1 construct: This preparation is used as the isolated mitochondrial preparation; from tissue; host or cells: rat heart (atria removed), isolated mitochondria
T1 sequence (Q63704 1-772): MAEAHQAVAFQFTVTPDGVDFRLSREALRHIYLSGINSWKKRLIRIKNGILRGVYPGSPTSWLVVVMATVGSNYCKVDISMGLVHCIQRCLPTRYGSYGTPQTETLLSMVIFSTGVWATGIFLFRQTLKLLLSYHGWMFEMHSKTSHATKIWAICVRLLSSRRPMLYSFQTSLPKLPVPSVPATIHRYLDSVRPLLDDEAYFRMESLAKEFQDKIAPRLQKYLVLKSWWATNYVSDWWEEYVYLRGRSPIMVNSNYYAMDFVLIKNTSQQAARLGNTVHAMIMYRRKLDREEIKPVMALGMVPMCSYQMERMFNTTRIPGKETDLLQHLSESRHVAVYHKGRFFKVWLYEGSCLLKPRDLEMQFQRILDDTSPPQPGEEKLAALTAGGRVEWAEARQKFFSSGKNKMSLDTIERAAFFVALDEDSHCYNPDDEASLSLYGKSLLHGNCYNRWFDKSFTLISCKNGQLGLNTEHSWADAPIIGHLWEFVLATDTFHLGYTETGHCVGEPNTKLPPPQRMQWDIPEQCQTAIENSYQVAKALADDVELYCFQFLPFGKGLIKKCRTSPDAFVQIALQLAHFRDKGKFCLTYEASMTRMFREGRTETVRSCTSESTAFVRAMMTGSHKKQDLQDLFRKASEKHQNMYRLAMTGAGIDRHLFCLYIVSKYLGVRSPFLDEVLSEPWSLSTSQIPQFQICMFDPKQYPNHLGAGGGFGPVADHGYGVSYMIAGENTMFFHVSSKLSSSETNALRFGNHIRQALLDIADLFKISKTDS
Description: Secondary Screen--Inhibition of CAT-1 in intact Cardiac Myocytes
(a) Preparation of Isolated Rat Cardiac Myocytes
Four hearts are excised from anesthetized rats and perfused retrogradly via the Langendorf technique. Each heart receives 100 mL of Krebs (NaCl, 118.4 mM; KCL, 4.6 mM; NaH2 PO4, 1.0 mM; NaHCO3, 20 mM; MgSO4, 2 mM; CaCl2, 50 μM; glucose, 11.0 mM), 100 mL of Ca++ free Krebs and finally 100 mL of 0.5% collagenase (Boehringer Mannhelm, type 1) in Hepes (NaCl, 115 mM; KCl, 5 mM; sucrose, 35 mM; glucose, 10 mM; Hepes, 10 mM; taurine, 4 mM; MgSO4, 2 mM; CaCl2, 50 μM). After these perfusions, the hearts are chopped into pieces, approx. 0.5 cm×0.5 cm and placed in four 125 mL plastic bottles along with 25 mL of collagenase/Hepes situated in a water bath maintained at 35° C. The pieces of cardiac tissue in each bottle are agitated by using a Harvard respirator connected to four glass syringes, which sucks the tissue up and down each tube during each respiratory cycle. After fifteen minutes, the collagenase/Hepes is removed and replaced with fresh collegenase/Hepes and the process repeated. The collegenase/Hepes from the subsequent fifteen minute harvests are centrifuged at 500 g to pellet the cells which are then resuspended in Hepes buffer. After six harvests, all cells are pelleted, resuspended in 2×26.5 mL of Hepes plus BSA (350 mg) and layered on top of 2×percoll gradients (21.15 mL percoll, 2.35 mL NaCl, 6 drops acetic acid). This is centfifuged at 3000 g for eight minutes forming a percoll gradient which results in viable cells being separated from damaged cells. The viable cells are removed, washed with Hepes and finally resuspended in 25 mL of Hepes.
The isolated cardiac myocytes (2 mL; approximately 1×10^6 cells) are separated into six glass pods. Into four of these are placed selected concentrations of the compound to be tested, and the cells are incubated for twenty minutes, after which the pods are centrifuged at 300 g for three minutes. 300 μL of normoxic Hepes is placed in one of the pods not containing compound and then all pods are placed in a hypoxic chamber (N2 atmosphere). Oxygen is fed via small bore steel tubes to the pod containing the normoxic buffer, while the other five pods receive pre-purified argon (99.998% pure). After two minutes, Hepes (pre-gassed with argon for at least twelve hours) is fed into the five hypoxic pods. This hypoxic environment (pO2 <10 mm Hg) is maintained for twenty minutes, after which the cells and pods are frozen by contact with a metal block precooled in liquid N2. The pods are then removed from the chamber and stored at -70° C. The carnitine assay is performed, as described below in (c), to determine the amount of long-chain acylcarnitine in the cells from the normoxic, hypoxic and hypoxic plus compound samples. […] Thus the IC50 in this screen is the concentration of test compound which produces a 50% inhibition of the hypoxia-induced increase in long-chain acylcarnitines.
(c) Long-chain Acylcarnitine Assay.
The frozen cell samples are thawed, mixed and homogenized with 40 μL of 70% PCA. The homogenate is transferred to eppendorf tubes while the homogenization tube and the glass pod is rinsed with 500 μL of 7% PCA, with the rinse being added to the eppendorf tube. This is then centrifuged at 1000 g for two minutes to pellet the precipitate (containing the long-chain acylcarnitine) and the supernatant is discarded. The pellet is washed twice with 500 μL of 7% PCA, the supernatants being discarded. The pellet is then hydrolyzed (to separate the acyl unit from carnitine to yield free carnitine) by the addition of 200 μL of aleionized H2 O and 50 μL of 5N KOH and incubated at 70° C. for ninety minutes.

[2] = target: T1, CAT-1 (carnitine acyltransferase 1); experiment: Primary Screen--Inhibition of CAT-1 in isolated mitochondria; type: biochemical
[3] = rat heart mitochondria, reduction of palmitoyl carnitine formation by 50%, read-out: Primary Screen IC50

SMILES	IC50 [1] [nM]	IC50 [2, 3] [nM]	inhibition [1] [%]	IC50 [2] [nM]
O=C(O)C(=O)c1ccc(OCCOC2CCCCCCC2)s1 [Example 9, 5-[[2-(cyclooctyloxy)ethyl]oxy]-alpha-oxo-2-thiopheneacetic acid]	8000	1800	–	–
O=C(O)C(=O)c1ccc(OCCOc2ccc3ccccc3c2)s1 [Example 4, 5-[[2-(2-naphthalenyloxy)ethyl]oxy]-alpha-oxo-2-thiopheneacetic acid]	1000	50	–	–
O=C(O)C(=O)c1ccc(OCCOc2ccccc2)cc1 [Example 37, alpha-oxo-4-[[2-(phenoxy)ethyl]oxy]benzeneacetic acid]	37000	2000	–	–
O=C(O)C(=O)c1ccc(CCCOc2ccc3ccccc3c2)cc1 [Example 143, 4-[3-(2-naphthalenyloxy)propyl]-alpha-oxobenzeneacetic acid]	12000	2700	–	–
O=C(O)C(=O)c1ccc(OCCOC2CCCCCCC2)cc1 [Example 101, 4-[[2-(cyclooctyloxy)ethyl]oxy]-alpha-oxobenzeneacetic acid]	50000	900	–	–
O=C(O)C(=O)c1ccc(OC/C=C/c2ccc3ccccc3c2)cc1 [Example 96, (E)-4-[[3-(2-naphthalenyl)-2-propenyl]oxy]-alpha-oxobenzeneacetic acid]	7000	65	–	–
O=C(O)C(=O)c1ccc(OCCSc2ccccc2)cc1 [Example 82, alpha-oxo-4-[[2-(phenylthio)ethyl]oxy]benzeneacetic acid]	17500	300	–	–
CCC(C)(C)C(=O)OCc1cccc(C)c1/C=C\COc1ccc(C(=O)C(=O)O)cc1 [Example 215, (Z)-4-[3-[2-(2,2-dimethyl-1-oxobutoxy)methyl]-6-methylphenyl]-2-propenyloxy]-alpha-oxobenzeneacetic acid (1:1) morpholine salt]	9000	2000	–	–
CCC(C)(C)C(=O)OCc1cccc(C)c1OCCOc1ccc([C@H](N)C(=O)O)cc1 [Example 298, (S)-alpha-amino-4-[2-[2-[(2,2-dimethyl-1-oxobutoxy)methyl]-6-methylphenoxy]ethoxy]benzeneacetic acid]	30000	2500	–	–
O=C(O)C(=O)c1ccc(OCCSc2ccc3ccccc3c2)cc1 [Example 90, 4-[[2-(2-naphthalenylthio)ethyl]oxy]-alpha-oxobenzeneacetic acid]	28000	270	–	–
O=C(O)C(=O)c1ccc(OCCOc2ccc3ccccc3c2)cc1F [Example 197, 2-fluoro-4-[2-(2-naphthalenyloxy)ethoxy]-alpha-oxobenzeneacetic acid]	6000	160	–	–
O=C(O)C(=O)c1ccc(OCCOc2cccc3ccccc23)cc1 [Example 84, 4-[[2-(1-naphthalenyloxy)ethyl]oxy]-alpha-oxobenzeneacetic acid]	4000	80	–	–
CN(C)CCOC(=O)C(=O)c1ccc(OCCOc2ccc3ccccc3c2)s1 [Example 6, 5-[[2-(2-naphthalenyloxy)ethyl]oxy]-alpha-oxo-2-thiopheneacetic acid 2-(dimethylamino)ethyl ester]	300	40	–	–
CCC(C)(C)C(=O)OCc1cccc(C)c1/C=C/COc1ccc(C(=O)C(=O)O)cc1 [Example 220, (E)-4-[3-[2-[(2,2-dimethyl-1-oxobutoxy)methyl]-6-methylphenyl]-2-propenyloxy]-alpha-oxobenzeneacetic acid]	90	1600	–	–
CC1(C)OCC(COC(=O)C(=O)c2ccc(OCCOc3ccc4ccccc4c3)cc2)O1 (racemic) [Example 169, rac.-4-[[2-(2-naphthalenyloxy)ethyl]oxy]-alpha-oxobenzeneacetic acid (2,2-dimethyl-1,3-dioxolan-4-yl)methyl ester]	–	3500	–	–
O=C(O)C(=O)c1ccc(OC/C=C/c2ccccc2)cc1 [Example 31, (E)-alpha-oxo-4-[(3-phenyl-2-propenyl)oxy]benzeneacetic acid]	–	100	–	–
COc1cc(OCCOc2ccc(C(=O)C(=O)O)cc2)cc(OC)c1OC [Example 65, 4-[[2-(3,4,5-trimethoxyphenoxy)ethyl]oxy]-alpha-oxobenzeneacetic acid]	–	3000	–	–
O=C(O)C(=O)c1ccc(OCCOc2ccc(Oc3ccccc3)cc2)cc1 [Example 59, alpha-oxo-4-[[2-(4-phenoxyphenoxy)ethyl]oxy]benzeneacetic acid]	–	10000	–	–
O=C(O)C(=O)c1ccc(OCCOc2ccc3cc4ccccc4cc3c2)cc1 [Example 108, 4-[[2-(2-anthracenyloxy)ethyl]oxy]-alpha-oxobenzeneacetic acid]	–	200	–	–
Cc1nnc2n1-c1sc(CCCOc3ccc(C(=O)C(=O)O)cc3)cc1C(c1ccccc1Cl)=NC2 [Example 296]	–	–	–	10000
O=C(O)C(=O)c1ccc(OCCc2ccccc2)cc1 [Example 21, 4-[(2-phenylethyl)oxy]-alpha-oxobenzeneacetic acid]	–	12000	–	–
O=C(O)C(=O)c1ccc(OCc2ccc3ccccc3c2)cc1 [Example 155, 4-[(2-naphthalenyl)methoxy]-alpha-oxobenzeneacetic acid]	–	220	–	–
O=C(O)C(=O)c1ccc(OCCOc2ccc(F)cc2)cc1 [Example 43, 4-[[2-(4-fluorophenoxy)ethyl]oxy]-alpha-oxobenzeneacetic acid]	–	800	–	–
O=C(O)C(=O)c1ccc(OCC(O)COc2ccccc2)cc1 (racemic) [Example 80, rac.-4-[[(2-hydroxy-3-phenoxy)propyl]oxy]-alpha-oxobenzeneacetic acid]	–	8000	–	–

Continued, in another order:

IC50 [1] [nM]	IC50 [2, 3] [nM]	inhibition [1] [%]	SMILES	IC50 [2] [nM]
–	–	90	CC(C)c1cccc(-c2ccc(F)cc2)c1OCCOc1ccc(C(=O)C(=O)O)cc1 [Example 234, 4-[2-[4'-fluoro-3-(1-methylethyl)[1,1'-biphenyl]-2-yloxy]ethoxy]-alpha-oxobenzeneacetic acid]	–
–	4000	94	O=C(O)C(=O)c1ccc(OCCCCCCc2cccc(O)c2O)cc1 [Example 260, 4-[6-(2,3-dihydroxyphenyl)hexyloxy]-alpha-oxobenzeneacetic acid]	–
600	170	–	O=C(O)C(=O)c1ccc(OCCOc2ccc3ccccc3c2)c(F)c1 [Example 199, 3-fluoro-4-[2-(2-naphthalenyloxy)ethoxy]-alpha-oxobenzeneacetic acid]	–
–	1000	99	O=C(O)C(=O)c1ccc(OCCCn2c(=O)c3ccccc3c3ccccc32)cc1 [Example 262, 4-[3-(5,6-dihydro-6-oxo-5-phenanthridinyl)propoxy]-alpha-oxobenzeneacetic acid]	–
7000	300	–	CO/N=C(/C(=O)O)c1ccc(OCCOc2ccc3ccccc3c2)s1 [Example 306, (Z)-alpha-(methoxyimino)-5-[2-(2-naphthalenyloxy)ethoxy]-2-thiopheneaceticacid (2:1) hydrate]	–
30000	400	–	O=C(COc1ccc(C(=O)C(=O)O)cc1)NC1CCCCCCC1 [Example 247, 4-[2-(cyclooctylamino)-2-oxoethoxy]-alpha-oxobenzeneacetic acid]	–
8000	1900	–	CN(O)C(=O)C(=O)c1ccc(OCCOc2ccc3ccccc3c2)cc1 [Example 299, N-hydroxy-N-methyl-4-[2-(2-naphthalenyloxy)ethoxy]-alpha-oxobenzeneacetamide]	–
7000	–	–	CC(C)c1nc(-c2ccccc2)n(-c2ccc(F)cc2)c1/C=C/COc1ccc(C(=O)C(=O)O)cc1 [Example 243, (E)-4-[3-[1-(4-fluorophenyl)-4-(1-methylethyl)-2-phenyl-1H-imidazol-5-yl]-2-propenyloxy]-alpha-oxobenzeneacetic acid]	–
12000	–	–	CC(C)n1c(/C=C/COc2ccc(C(=O)C(=O)O)cc2)c(-c2ccc(F)cc2)c2ccccc21 [Example 241, (E)-4-[3-[3-(4-fluorophenyl)-1-(1-methylethyl)-1H-indole-2-yl]-2-propenyloxy]-alpha-oxobenzeneacetic acid (1:1) morpholine salt]	–
–	4500	–	Cc1cc(C)c(C(=O)COc2ccc(C(=O)C(=O)O)cc2)c(C)c1 [Example 292, 4-[2-oxo-2-(2,4,6-trimethylphenyl]ethoxy]-alpha-oxobenzeneacetic acid]	–
–	1800	–	CN(C)/N=C(/C(=O)O)c1ccc(OCCOc2ccc3ccccc3c2)cc1 [Example 320, (E)-alpha-(dimethylhydrazono)-4-[2-(2-naphthalenyloxy)ethoxy]benzeneaceticacid]	–
–	400	–	O=C(O)C(=O)c1ccc(OCC(=O)N2CCc3ccccc3C2)cc1 [Example 251, 4-[2-oxo-2-(1,2,3,4-tetrahydro-2-isoquinolinyl)ethoxy]-alpha-oxobenzeneacetic acid]	–
